Experimental findings from article PMC11462456 (Chemical Science, 2024) are described below.

Usually EC50 stands for the midpoint of the concentration-response curve. High values mean a need for much substance, low ones an effect from little substance.

For one series, the target named is T1, CRBN (Homo sapiens, UniProt Q96SW2).
T1 construct: western blot analysis of the levels of CRBN and VHL E3 ligase in cell lysate; endogenous in cells; host or cells: HEK293 (ATCC)
Kind of series: E3 ligase homo-degradation by western blot, CRBN. Conditions: HEK293 cells, 4 h, 0.1, 1 and 10 μM. Type of series: cell-based. An excerpt: 4. Biological experiments
Primary antibodies used for western blotting included anti-human BRD2(1:2000, rabbit monoclonal, Abcam, ab139690), anti-human BRD3 (1:1000, rabbit monoclonal, Abcam, ab264420), anti-human BRD4 (E2A7X) (1:1000, rabbit monoclonal, Cell Signaling Technology, #13440), anti-human VHL (1:1000, rabbit polyclonal, Cell Signaling Technology, #68547), anti-human CRBN (D8H3S) (1:1000, rabbit polyclonal, Cell Signaling Technology, #71810), anti-human alpha Tubulin, clone B-5-1-2 (1:5000, mouse monoclonal, Merck Life Science, # 32-2500).Secondary antibodies used for western blot included: anti-mouse horseradish peroxidase-linked antibody (1:3000, sheep, GE Healthcare Life Sciences, #NA931V), and anti-rabbit horseradish peroxidase-linked antibody (1:8000, donkey, GE Healthcare Life Sciences, #NA934V). Reagent for degradation assay and compounds […]
dr. Serge Van Calenbergh, Ghent University).
4.2 Cell lines and culture
HEK293, A549, SKOV-3, HCT116 cells (ATCC)were grown in DMEM (Gibco),and all cells were supplemented with 10% (v/v) fetal bovine serum (FBS) (Sigma), […] penicillin/streptomycin solution (Thermo Fisher Scientific) and maintained at 37 °C and 5% CO2 in a humidified atmosphere. All cells used were tested monthly using the Mycoalert Mycoplasma Detection Kit (cat. no. LT07-318, Lonza) to exclude mycoplasma contamination.
4.3 Degradation assays by Western blot
General method of Western blot: Lysates were sonicated and centrifuged at 4 °C at 20000 g for 15 min, and the supernatants were transferred to new tubes. Protein concentration of cell lysates was measured using the DC Protein Assay kit (BIO-RAD) following manufacturer's instructions. Cell lysates were mixed with reducing sample buffer (0.5 M Tris-HCl (pH 6.8), 43% glycerol, 9.2% SDS, 5% 2-mercaptoethanol, 5% bromophenol blue) and boiled for 5 min at 95°C. […]
Figure S5 Homo-degradation effect in Dual-ligand PROTACs. […] Subsequently, cell lysates were prepared and the protein levels of CRBN or VHL E3 ligase were assessed by Western blotting. […]

Series [1] concerns A549 cells. Kind of series: MTT cell viability with and without washout. The series is classed as cell-based, human. Here is the method:
Figure S6 Dual-ligand PROTAC activity is not caused by enhanced BRD-inhibition by dual JQ1
display. A549 cells were treated with an escalating dose of 2J2V, 2J-N3 and JQ1, respectively, for 8h.
Subsequently, cells were either washed and cultured in fresh medium, or left untouched. After a total
of 48h, cell viability was measured by MTT assay (n=6). […]

The subject of the next series is HEK293 cells. Put plainly: CellTiter-Glo 2D metabolic activity assay, HEK293. As to conditions: Homo sapiens, 2D culture, 48 h. The series is classed as cell-based. Here is the method: Figure S5 Homo-degradation effect in Dual-ligand PROTACs. HEK293 cells were treated with all synthesized PROTACs or 2V-alkyne/2P-alkyne for 4 hours. Subsequently, cell lysates were prepared and the protein levels of CRBN or VHL E3 ligase were assessed by Western blotting. (A) Representative image of CRBN or VHL E3 ligase homo-degradation was screened for all PROTACs and commercial single-ligand PROTACs at a concentration of 0.1, 1 and 10 µM, respectively (equivalent volume of DMSO as control group). (B) Representative image of CRBN or VHL E3 ligase homo-degradation was screened for 2P-alkyne or 2V-alkyne at a concentration of 0.1, 1 and 10 µM, respectively (equivalent volume of DMSO as control group). Experiments were performed as three independent replicates.
(§1) 4.4 Cell viability assay on 2D cells cultures
HEK293, HCT116, A549,andSKOV-3 cells were seeded in 96-well tissue culture plates at a density of 2000-3000 cells per well in 100 µl of growth medium and incubated overnight at 37 °C with 5% CO2. The following day, the cells were treated with various concentrations of compounds or 0.05% DMSO for 48 h. […] Luminescence readout (Gen5 Data Analysis Software v3.08.01) was performed to record luminescence. […]

Series [2] concerns A549 cells. Kind of series: CellTiter-Glo 2D metabolic activity assay, A549. The series is classed as cell-based. As to conditions: Homo sapiens, 2D culture, 48 h. Here is the method:
as §1
HEK293, HCT116, A549,andSKOV-3 cells were seeded in 96-well tissue culture plates at a density of 2000-3000 cells per well in 100 µl of growth medium and incubated overnight at 37 °C with 5% CO2. The following day, the cells were treated with various concentrations of compounds or 0.05% DMSO for 48 h. After treatment, add 100 μl of Cell Titer-Glo® 2.0 Reagent (cat. no. G9243, Promega) in each well, then the 96-well plates were put on an orbital shaker for 10 min and then allow the plate to incubate at room temperature for 10-20min to stabilize the luminescent signal. Luminescence readout (Gen5 Data Analysis Software v3.08.01) was performed to record luminescence.
(1 picture or pasted object on this page, not shown here)
In general terms: In ATP-based viability assays light output follows the ATP content of the culture.

T1 sequence (Q96SW2 whole entry): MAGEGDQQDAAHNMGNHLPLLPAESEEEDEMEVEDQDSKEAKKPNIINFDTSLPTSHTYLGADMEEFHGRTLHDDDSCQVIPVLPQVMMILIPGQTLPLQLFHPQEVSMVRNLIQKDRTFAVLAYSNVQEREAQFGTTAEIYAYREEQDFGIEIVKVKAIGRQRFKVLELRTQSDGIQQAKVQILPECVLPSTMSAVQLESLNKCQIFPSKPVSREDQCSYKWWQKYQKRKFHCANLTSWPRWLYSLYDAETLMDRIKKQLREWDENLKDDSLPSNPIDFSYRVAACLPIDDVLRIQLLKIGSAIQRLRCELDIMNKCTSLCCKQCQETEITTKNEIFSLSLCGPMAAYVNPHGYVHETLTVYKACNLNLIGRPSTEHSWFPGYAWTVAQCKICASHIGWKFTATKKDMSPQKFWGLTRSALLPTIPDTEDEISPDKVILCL

For `Cc1sc2c(c1C)C(c1ccc(Cl)cc1)=N[C@@H](CC(=O)NCCOCCOCCNC(=O)C[C@H](NC(=O)COCCOCCOCCOCCn1cc(CCC(=O)N[C@@H](CC(=O)NCCOCCOCCNc3cccc4c3C(=O)N(C3CCC(=O)NC3=O)C4=O)C(=O)NCCOCCOCCNc3cccc4c3C(=O)N(C3CCC(=O)NC3=O)C4=O)nn1)C(=O)NCCOCCOCCNC(=O)C[C@@H]1N=C(c3ccc(Cl)cc3)c3c(sc(C)c3C)-n3c(C)nnc31)c1nnc(C)n1-2` (some centres unmarked) [2J2P], the “CRBN level (homo-degradation)” value on CRBN is “did not induce any significant decrease of CRBN”.

For `Cc1ncsc1-c1ccc(C(C)NC(=O)C2CC(O)CN2C(=O)C(NC(=O)COCCOCCNC(=O)CC(NC(=O)CCc2cn(CCOCCOCCOCCOCC(=O)NC(CC(=O)NCCOCCOCCNC(=O)CC3N=C(c4ccc(Cl)cc4)c4c(sc(C)c4C)-n4c(C)nnc43)C(=O)NCCOCCOCCNC(=O)CC3N=C(c4ccc(Cl)cc4)c4c(sc(C)c4C)-n4c(C)nnc43)nn2)C(=O)NCCOCCOCC(=O)NC(C(=O)N2CC(O)CC2C(=O)NC(C)c2ccc(-c3scnc3C)cc2)C(C)(C)C)C(C)(C)C)cc1` (centres unmarked) [2J2V], the cytotoxic activity entry with A549 cells [1] (48 hours) is “much more potent”. Moreover, the “cytotoxic potency after washout” value with A549 cells [1] (washout after 8 hours, 48 hours total) is listed as “largely retained its potency after washout”.

For `Cc1ncsc1-c1ccc(CNC(=O)C2CC(O)CN2C(=O)C(NC(=O)COCCOCCOCCNC(=O)CC2N=C(c3ccc(Cl)cc3)c3c(sc(C)c3C)-n3c(C)nnc32)C(C)(C)C)cc1` (centres unmarked) [MZ1, reference compound], the results for the EC50 in the series on HEK293 cells and in the series with A549 cells [2] were > 10000 nM and 400 nM, respectively.
